Results: the supplement of paper PMC5412046
Structures can show the parent of a compound that is named as a salt.

These compounds were tested on SB.msgc-1 (assay: viability at highest tested concentration (MAXR) relative to DMSO; higher = less cytotoxic). Conditions: SB.msgc-1 (sporadic gastric cancer).
Outline: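 After 48 h of compound exposure, viability of hereditary or sporadic patient-derived gastric cancer cells was measured by CellTiter-Glo luminescence. Compounds were added in DMSO at 11 threefold-diluted concentrations to 500 cells per 1536 well. Results are viability normalised to DMSO, either at the highest concentration or as trapezoidal area under the curve.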
`O=C1c2ccccc2-[n+]2ccc3c([nH]c4ccccc43)c21` [Fascaplysin] (top concentration 46.0829 µM) was tested, and the viability was 0.154%. In the case of `CC(C)c1ccc(Cn2ccc3c4c(N)nc(NC5CC5)nc4ccc32)cc1` (top concentration 46.0829 µM), the viability is reported as 7.89%. With `CC(C)=CCC/C(C)=C/CC/C(C)=C/CSc1ccccc1C(=O)O` [Salirasib] (top concentration 46.0829 µM) the viability was 65.2%. `O=C(O[C@H]1C[C@H]2CC[C@@H](C1)[N+]21CCCC1)C(O)(c1ccccc1)c1ccccc1.[Cl-]` [Trospium chloride] (top concentration 46.0829 µM) gave a viability of 113%. For `CC(C)(C#N)c1cc(Cn2cncn2)cc(C(C)(C)C#N)c1` [Anastrozole] (top concentration 46.0829 µM), the viability was 97.5%. `Cc1ccc(Nc2nccc(N(C)c3ccc4c(C)n(C)nc4c3)n2)cc1[S+](N)(=O)[O-]` [Pazopanib] (top concentration 46.0829 µM) showed a viability of 43.9%. Compound `Cn1c(=O)c2c(ncn2C)n(C)c1=O.O=C(O)CC(O)(CC(=O)O)C(=O)O` [Caffeine] (top concentration 46.0829 µM) has a viability of 94.4%. With `O=C(O)Cc1cccc(OCCCN(Cc2cccc(C(F)(F)F)c2Cl)CC(c2ccccc2)c2ccccc2)c1` [GSK-3965] (top concentration 46.0829 µM) the viability was 31%. For `CC[C@@]1(O)C(=O)OC\C2=C1\C=C\3N(CC4=C3N=C5C=CC=CC5=C4)C2=O` [Camptothecin] (top concentration 46.0829 µM), the viability was 24.5%. For `C=C1C(=O)OC2/C=C(/C)CC/C=C(/C)CCC12` (configuration not stated) [Costunolide] (top concentration 46.0829 µM), the viability was 40.9%. Compound `ClC1=CC=C2N/C3=N/C(=O)CN3CC2=C1Cl` [anagrelide] (top concentration 46.0829 µM) has a viability of 104%. `Cc1nc2ccc(CN(C)c3ccc(C(=O)N[C@@H](CCC(=O)O)C(=O)O)s3)cc2c(=O)[nH]1` [Raltitrexed] (top concentration 46.0829 µM) gave a viability of 66.5%. For `CCc1cncnc1N1CCN(Cc2nc3cc(C(F)(F)F)ccc3[nH]2)CC1` (top concentration 46.0829 µM), the viability was 56%. In the case of `O=C(Nc1cccc(Nc2ncc(Br)c(NCCc3cnc[nH]3)n2)c1)N1CCCC1` [BX-912] (top concentration 46.0829 µM), the viability is reported as 48.1%. Compound `CC[C@H](CC#N)OC(=O)N[C@@H](C)c1cccc(NC(=O)Nc2ccc(-c3cnco3)c(OC)c2)c1` [AVN-944] (top concentration 46.0829 µM) has a viability of 37.9%. In the case of `CCN1CCCC1CNC(=O)c1cc(S(=O)(=O)CC)c(N)cc1OC` (configuration not stated) [Amisulpride] (top concentration 46.0829 µM), the viability is reported as 106%. Work on `Cn1cnc([N+](=O)[O-])c1Sc1ncnc2nc[nH]c12` [Azathioprine] (top concentration 46.0829 µM) yielded a viability of 22%. For `O=C(O)c1ccc(O)c2ncc(N3CCOCC3)cc12` (top concentration 46.0829 µM), the viability was 39.8%. In the case of `O=C(CCc1ccc(O)cc1)c1c(O)cc(O)cc1O[C@@H]1O[C@H](CO)[C@@H](O)[C@H](O)[C@H]1O` [Phlorizin] (top concentration 46.0829 µM), the viability is reported as 81.1%. In the case of `OC(=O)C1=CC=C(NC2=NC3=C(C\N=C(/C4=CC(=CC=C34)Cl)C5=C(F)C=CC=C5F)C=N2)C=C1` [MLN-8054] (top concentration 46.0829 µM), the viability is reported as 50.9%. Work on `Oc1ccc(-c2nc(-c3ccncc3)c(-c3ccc(F)cc3)[nH]2)cc1` (top concentration 46.0829 µM) yielded a viability of 68.8%. With `CCOC(=O)[C@H](CCc1ccccc1)N[C@H]1CS[C@H](c2cccs2)CN(CC(=O)O)C1=O.Cl` [Temocapril hydrochloride] (top concentration 46.0829 µM) the viability was 6.46%. `NCCc1c[nH]cn1` [Histamine dihydrochloride] (top concentration 46.0829 µM) gave a viability of 88.7%. `O=C(O)c1ccc2cc(-c3ccc(O)c(C45CC6CC(CC(C6)C4)C5)c3)ccc2c1` [AHPN] (top concentration 46.0829 µM) gave a viability of 15.9%. With `CN(CCOc1ccc(NS(C)(=O)=O)cc1)CCc1ccc(NS(C)(=O)=O)cc1` [Dofetilide] (top concentration 46.0829 µM) the viability was 99%. For `CO/N=C(/C(=O)N[C@@H]1C(=O)N2C(C(=O)O)=C(Cn3ccc(=N)n3CCO)CS[C@H]12)c1csc(N)n1` [Cefoselis sulfate] (top concentration 46.0829 µM), the viability was 109%. For `COc1cc2nc(N(C)CCCNC(=O)C3CCCO3)nc(N)c2cc1OC` (configuration not stated) [Alfuzosin hydrochloride] (top concentration 46.0829 µM), the viability was 108%. In the case of `COCCOC(=O)C/1=C(C)/NC/2=C(C1C3=CC=CC(=C3)O)/C(=O)CC(C2)C4=C(OC)C=CC=C4` (configuration not stated) [HPI-1] (top concentration 46.0829 µM), the viability is reported as 34.1%. `O=C(NCCO[N+](=O)[O-])c1cccnc1` [Nicorandil] (top concentration 46.0829 µM) gave a viability of 57.7%. `Nc1ncnc2c1c(-c1cccc(OCc3ccccc3)c1)cn2C1CC(CN2CCCC2)C1` (configuration not stated) [ADW-742] (top concentration 46.0829 µM) gave a viability of 51%. `COC1=CC(c2cc3ccccc3[nH]2)=N/C1=C/c1[nH]c(C)cc1C` [Obatoclax] (top concentration 46.0829 µM) gave a viability of 12.1%. In the case of `C[C@H]1C[C@H]2[C@@H]3CCC4=CC(=O)C=C[C@]4(C)[C@H]3C(=O)C[C@]2(C)[C@@]1(O)C(=O)CO` [Meprednisone] (top concentration 46.0829 µM), the viability is reported as 83.2%. Work on `NNC(=O)c1ccncc1` [Isoniazid] (top concentration 46.0829 µM) yielded a viability of 130%. `Cn1cc(CNCC2CCN(c3ncc(C(=O)NO)cn3)CC2)c2ccccc21` [Quisinostat hydrochloride] (top concentration 46.0829 µM) showed a viability of 3.03%. With `CCN(c1ccccc1)c1cc(NC)[n+](C)c(C)n1` [ICI-D7288] (top concentration 46.0829 µM) the viability was 63.1%. Compound `CCCCOCCOc1nc(-c2ccc(C(=O)O)c(F)c2)sc1C` (top concentration 46.0829 µM) has a viability of 90.2%. `N#Cc1c(C2CCNCC2)cc(-c2c(O)cccc2OCC2CC2)nc1N` [IKK-2 Inhibitor VIII] (top concentration 46.0829 µM) showed a viability of 24.3%. In the case of `CC(C)(C)C1=CC(=C(NC(=O)C/2=C/NC3=C(C=CC=C3)C2=O)C=C1O)C(C)(C)C` [Ivacaftor] (top concentration 46.0829 µM), the viability is reported as 106%. In the case of `COC1=CC=C2C(=CC=NC2=C1)OC3=CC=C(NC(=O)\C4=C(C)\N(CC(C)(C)O)N(C4=O)C5=CC=CC=C5)C=C3F` [AMG-1] (top concentration 46.0829 µM), the viability is reported as 40.4%. With `NC/1=N/C(=O)N(C[C@@H](CO)OC[P](O)(O)=O)/C=C1` [Cidofovir] (top concentration 23.0415 µM) the viability was 123%. For `CCN(CC)CCNC(=O)c1ccc2nc(-c3ccccc3)c(-c3ccc(CN4CCC(n5c(=O)[nH]c6ccccc65)CC4)cc3)nc2c1` [Merck-22-6] (top concentration 46.0829 µM), the viability was -0.696%. Work on `O=C1N\2CCC3=C([NH]C4=C3C=CC=C4)C2=N/C5=CC=CC=C15` [Rutaecarpine] (top concentration 46.0829 µM) yielded a viability of 52.2%. In the case of `CC(COc1ccccc1)N(CCCl)Cc1ccccc1` (configuration not stated) [Phenoxybenzamine hydrochloride] (top concentration 46.0829 µM), the viability is reported as 81.1%. `O=C1NC(=O)/C(=C/c2ccc(-c3ccc(F)cc3O)o2)S1` (top concentration 46.0829 µM) was tested, and the viability was 90%. In the case of `COc1ccccc1OCCNCC(O)COc1cccc2[nH]c3ccccc3c12` (configuration not stated) [Carvedilol] (top concentration 46.0829 µM), the viability is reported as 86.7%. Compound `COc1ccc(CCN2CCN(CCCc3ccccc3)CC2)cc1OC` [Cutamesine hydrochloride] (top concentration 46.0829 µM) has a viability of 92.1%. With `O=C(Nc1ccc([N+](=O)[O-])cc1Cl)c1cc(Cl)ccc1O` [Niclosamide] (top concentration 46.0829 µM) the viability was 23.9%.
